PubChem BioAssay AID1421 (Emory University Molecular Libraries Screening Center, 2008)
The source made the active and inactive calls. No rule for the calls is given here.

biological target: Prostaglandin E2 receptor EP2 subtype (Homo sapiens) (UniProt P43116); assay: compounds shifting PGE2 potency at EP2 – cell-based, human EP2, PGE2 EC50 shift, dose response (AID 1421); conditions: EP2-expressing cells, PGE2 EC50 shift by compound
Sequence (P43116 whole entry, looked up): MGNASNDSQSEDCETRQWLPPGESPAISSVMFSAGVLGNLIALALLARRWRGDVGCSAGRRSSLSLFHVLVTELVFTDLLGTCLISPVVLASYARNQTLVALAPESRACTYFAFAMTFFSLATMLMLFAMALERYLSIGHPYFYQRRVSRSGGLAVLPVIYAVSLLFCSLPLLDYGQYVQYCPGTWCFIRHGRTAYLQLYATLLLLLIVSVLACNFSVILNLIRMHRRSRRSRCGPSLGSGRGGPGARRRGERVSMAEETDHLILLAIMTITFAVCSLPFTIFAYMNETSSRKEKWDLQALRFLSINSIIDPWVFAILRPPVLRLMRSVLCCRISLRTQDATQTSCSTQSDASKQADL

Row | Compound | outcome
1 | C/C(CCc1oc2ccc(Cl)cc2c1-c1ccc(C)o1)=N\O | active
2 | CC(C)Cc1nc(N2CCCCC2)c(C#N)c2c1CCC2 | active
3 | COc1ccc(-c2cc(-c3ccccc3)nc(N3CCCC3)n2)cc1OC | active
4 | CCCc1cc(-c2n[nH]c(=S)n2C(C)c2ccccc2)cs1 (stereo not drawn) | active
5 | CN1CCCN(C(=O)Cc2c(Cl)cccc2Cl)c2nc3ccccc3nc21 | active
6 | CCOC(=O)c1c(NC(=O)c2ccc(-n3cnnn3)cc2)sc2c1CCCC2 | active
7 | CCSc1nc2sc3c(c2c(=O)n1CC)CC(C)(C)OC3 | active
8 | CC1CCc2c(sc(N)c2C(=O)OC(C)C)C1 (stereo not drawn) | active
9 | Cc1ccc(NCc2ccccc2OCc2ccccc2F)cc1 | active
10 | Cc1ccc(NC2=C(C(=O)c3ccccc3)N(C)S(=O)(=O)c3ccccc32)cc1 | active
11 | CC1CCN(c2ccccc2NC(=O)c2ccc(C#N)cc2F)CC1 | active
12 | FC(F)(F)c1cc(-c2ccccc2)nc(N2CCOCC2)n1 | active
13 | CCOC(=O)c1c(NC(=O)c2ccoc2C)sc(C)c1C | active
14 | COc1cc(-c2nc(-c3cccc(C(F)(F)F)c3)no2)cc(OC)c1OC | active

same assay, conditions: EP2-expressing cells, PGE2 EC50 shift by compound; measured here: PGE2 EC50 at 6.7 uM compound

Row | Compound | PGE2 EC50 with compound
15 | CCC1C/C(=C/c2ccco2)C(=O)/C(=C/c2ccco2)C1 (stereo not drawn) | 1.02 nM
16 | O=C(Oc1ccc(-c2nccc(-c3ccccn3)n2)cc1)c1cccc(C(F)(F)F)c1 | 1.44 nM
17 | O=c1[nH]c2ccc(Cl)cc2c(-c2ccccc2)c1N1CCN(c2ccccn2)CC1 | 1.64 nM
18 | CN(C)c1nc(-c2ccccc2)c2cnn(Cc3ccccc3)c2n1 | 1.12 nM
19 | O=C(c1ccccc1O)N1N=C(c2ccccc2)CC1(O)C(F)(F)F (stereo not drawn) | 1.48 nM
20 | CCOC(=O)c1c(NC(=O)Cc2cccs2)sc(C)c1C | 0.87 nM
21 | CCCCCCn1c(COc2ccccc2F)nnc1SCC(=O)N1c2ccccc2NC(=O)C1(C)C | 0.93 nM
22 | C/C(CCc1oc2ccc(Cl)cc2c1-c1ccc(C)o1)=N\O | 0.81 nM
23 | COC(=O)c1ccc(Oc2cc(C)nc(NCc3ccccc3)n2)cc1 | 0.34 nM
24 | Cc1ccc(-n2c(=S)[nH]c3c(oc4ccccc43)c2=O)cc1 | 2.77 nM
25 | FC(F)(F)c1nc(=S)c2ccccc2[nH]1 | 2.84 nM
26 | C=CCNC(=S)NNc1nc(Nc2ccccc2)nc(N2CCCCC2)n1 | 1.42 nM
27 | O=C(Nc1ccccc1Oc1ccccc1)c1ccc(Br)o1 | 1.05 nM
28 | N#CN=C1SCCS1 | 0.92 nM
29 | c1ccc2c(c1)OCC(c1csc3ncnc(N4CCCCC4)c13)O2 (stereo not drawn) | 2.54 nM
30 | Cc1cc(NC(=O)Cn2nnc3sc4c(c3c2=O)CCC(C(C)(C)C)C4)no1 (stereo not drawn) | 0.98 nM
31 | COC(=O)c1c(NC(=O)c2cccs2)sc2c1CCC(C)C2 (stereo not drawn) | 0.96 nM
32 | COC[C@H]1OC(=O)c2coc3c2[C@@]1(C)C1=C(C3=O)C2CCC(=O)[C@@]2(C)C[C@H]1OC(C)=O (stereo partly drawn) | 0.84 nM
33 | CN(/N=C/C=C/c1ccccc1)C1=NS(=O)(=O)c2ccccc21 | 0.68 nM
34 | Cc1ccc(N=Cc2cc(Cc3ccccc3Cl)cc([N+](=O)[O-])c2O)c(O)c1 | 0.6 nM
35 | Cc1ccc2nc(-c3ccncc3)cc(-c3ccccc3)c2c1 | 0.31 nM
36 | CC(C)Cc1nc(N2CCCCC2)c(C#N)c2c1CCC2 | 1.37 nM

Row | Compound | PGE2 EC50 with compound
37 | O=C(Nc1cccc2cccnc12)c1ccc(Br)o1 | 1.22 nM
38 | COC(=O)c1sccc1NC(=O)c1cccc(OC)c1 | 1.42 nM
39 | COC(=O)c1[nH]c2ccccc2c1NS(=O)(=O)c1ccc(F)c(C)c1 | 0.88 nM
40 | c1ccc(-c2nn3c(C4CCCCC4)nnc3s2)cc1 | 1.07 nM
41 | O=C(c1ccc(Cl)cc1)c1oc2ccccc2c1CS(=O)c1ccc(Cl)cc1 (stereo not drawn) | 0.88 nM
42 | Cc1ccc(C(=O)OCC(=O)Nc2ccccc2Sc2ccccc2)cc1C | 0.85 nM
43 | COc1ccc(-c2cc(-c3ccccc3)nc(N3CCCC3)n2)cc1OC | 1.12 nM
44 | Cc1cc(SCC(=O)c2ccccc2)nc2ccccc12 | 1.09 nM
45 | CCCc1cc(-c2n[nH]c(=S)n2C(C)c2ccccc2)cs1 (stereo not drawn) | 1.2 nM
46 | CN1CCCN(C(=O)Cc2c(Cl)cccc2Cl)c2nc3ccccc3nc21 | 0.9 nM
47 | CCC1(C)Cc2ccccc2-c2nc3n(c(=O)c21)CCS3 (stereo not drawn) | 1.37 nM
48 | CCc1c(-c2n[nH]c(=S)n2Cc2ccccc2)csc1C | 1.22 nM
49 | c1ccc2c(-c3nc(C4CCCCC4)no3)cc(-c3ccncc3)nc2c1 | 0.34 nM
50 | CCOC(=O)c1c(NC(=O)c2ccoc2C)sc(C(=O)N(C)C)c1C | 0.8 nM
51 | O=C(Nc1ccccc1N1CCCC1)c1cc2ccccc2o1 | 1.46 nM
52 | CCOC(=O)c1c(NC(=O)c2ccc(-n3cnnn3)cc2)sc2c1CCCC2 | 0.85 nM
53 | CC(=O)N1c2ccccc2C(C)CC12CCCCC2 (stereo not drawn) | 2.48 nM
54 | CCSc1nc2sc3c(c2c(=O)n1CC)CC(C)(C)OC3 | 0.96 nM
55 | COc1c2c(cc3occ(-c4ccc5c(c4)OCO5)c(=O)c13)OC(C)(C)C=C2 | 1.07 nM
56 | CSc1nnc(CSCc2ccc(Cl)cc2Cl)n1-c1ccccc1 | 2.63 nM
57 | CC1CCc2c(sc(N)c2C(=O)OC(C)C)C1 (stereo not drawn) | 0.91 nM
58 | O=C(O)c1ccc(-c2ccccc2C(F)(F)F)o1 | 0.92 nM
